According to US8206901B2, “Method for the synthesis of a bifunctional complex” (Nuevolution A/S, priority 2002, dated 2012):

How the values were obtained:
[1] = target: T1, integrin αv/βIII receptor (Homo sapiens, UniProt P05106+P06756); assay: Selection of 25-member split-and-mix library on immobilised integrin αVβ3, PCR, cloning and sequencing (Example 9); format: binding; details: after selection; 18 successful sequences
T1 construct: purchased Bachem
Experimental: Maxisorp ELISA wells (NUNC A/S, Denmark) were coated with each 100 μL 2 μg/mL integrin αVβ3 (Bachem) in PBS buffer [2.8 mM NaH2PO4, 7.2 mM Na2HPO4, 0.15 M NaCl, pH 7.2] overnight at 4° C. Then the integrin solution was substituted for 200 μl blocking buffer [TBS, 0.05% Tween 20 (Sigma P-9416), 1% bovine serum albumin (Sigma A-7030), 1 mM MnCl2] which was left on for 1 hour at room temperature. Then the wells were washed 2 times with 250 μl blocking buffer and 5 μl of the encoded library was added to the wells after diluting it 20 times with blocking buffer. Following 2 hours incubation at room temperature the wells were washed with 20×250 μl blocking buffer.
After the final wash the wells were cleared of wash buffer and subsequently inverted and exposed to UV light at 300-350 nm for 30 seconds using a trans-illuminator set at 70% power.
100 μl blocking buffer without Tween-20 was immediately added to each well, the wells were shaken for 30 seconds, and the solutions containing eluted templates were removed for PCR analysis. […]
Individual E. coli clones were picked and transferred to PCR wells containing 50 μl water. Colonies were incubated at 94° C. for 5 minutes and 20 μl was used in a 25 μl PCR reaction with 5 pmol of each TOPO primer M13 forward & M13 reverse (AH365/AH366) and Ready-To-Go PCR beads (Amersham) using PCR program EKO50: 94° C. […]

αv/βIII receptor = αv/βIII receptor (Homo sapiens, UniProt P05106+P06756); details: cited from earlier work
Sequence of αv/βIII receptor (P06756 31-889 limits assumed): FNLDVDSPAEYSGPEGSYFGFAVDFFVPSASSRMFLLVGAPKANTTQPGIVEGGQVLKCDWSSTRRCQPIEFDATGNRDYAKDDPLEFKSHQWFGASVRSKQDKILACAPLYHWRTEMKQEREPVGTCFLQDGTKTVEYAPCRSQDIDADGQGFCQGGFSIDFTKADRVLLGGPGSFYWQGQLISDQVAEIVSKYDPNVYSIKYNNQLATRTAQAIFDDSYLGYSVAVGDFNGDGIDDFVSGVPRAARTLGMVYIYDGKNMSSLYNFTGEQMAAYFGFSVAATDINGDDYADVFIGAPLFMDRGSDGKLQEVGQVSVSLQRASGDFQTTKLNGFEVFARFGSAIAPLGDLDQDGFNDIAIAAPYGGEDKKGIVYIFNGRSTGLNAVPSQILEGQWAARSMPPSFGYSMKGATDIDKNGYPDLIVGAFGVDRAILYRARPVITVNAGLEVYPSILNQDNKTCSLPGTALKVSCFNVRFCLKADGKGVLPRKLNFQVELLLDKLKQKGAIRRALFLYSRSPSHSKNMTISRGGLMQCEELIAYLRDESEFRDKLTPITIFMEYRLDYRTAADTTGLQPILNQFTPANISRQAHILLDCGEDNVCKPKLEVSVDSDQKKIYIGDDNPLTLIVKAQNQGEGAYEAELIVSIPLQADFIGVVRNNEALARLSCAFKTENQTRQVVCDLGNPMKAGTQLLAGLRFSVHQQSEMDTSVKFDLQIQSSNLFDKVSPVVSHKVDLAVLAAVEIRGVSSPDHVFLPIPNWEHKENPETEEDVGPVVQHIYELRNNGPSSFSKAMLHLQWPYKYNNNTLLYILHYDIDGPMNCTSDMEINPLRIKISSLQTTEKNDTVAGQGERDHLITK
Sequence of αv/βIII receptor (P06756 891-1048 partner limits assumed): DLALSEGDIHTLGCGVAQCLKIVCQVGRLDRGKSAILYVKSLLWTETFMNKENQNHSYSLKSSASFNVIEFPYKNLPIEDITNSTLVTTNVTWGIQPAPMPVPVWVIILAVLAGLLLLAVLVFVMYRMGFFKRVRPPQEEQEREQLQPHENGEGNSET
Sequence of αv/βIII receptor (P05106 27-788): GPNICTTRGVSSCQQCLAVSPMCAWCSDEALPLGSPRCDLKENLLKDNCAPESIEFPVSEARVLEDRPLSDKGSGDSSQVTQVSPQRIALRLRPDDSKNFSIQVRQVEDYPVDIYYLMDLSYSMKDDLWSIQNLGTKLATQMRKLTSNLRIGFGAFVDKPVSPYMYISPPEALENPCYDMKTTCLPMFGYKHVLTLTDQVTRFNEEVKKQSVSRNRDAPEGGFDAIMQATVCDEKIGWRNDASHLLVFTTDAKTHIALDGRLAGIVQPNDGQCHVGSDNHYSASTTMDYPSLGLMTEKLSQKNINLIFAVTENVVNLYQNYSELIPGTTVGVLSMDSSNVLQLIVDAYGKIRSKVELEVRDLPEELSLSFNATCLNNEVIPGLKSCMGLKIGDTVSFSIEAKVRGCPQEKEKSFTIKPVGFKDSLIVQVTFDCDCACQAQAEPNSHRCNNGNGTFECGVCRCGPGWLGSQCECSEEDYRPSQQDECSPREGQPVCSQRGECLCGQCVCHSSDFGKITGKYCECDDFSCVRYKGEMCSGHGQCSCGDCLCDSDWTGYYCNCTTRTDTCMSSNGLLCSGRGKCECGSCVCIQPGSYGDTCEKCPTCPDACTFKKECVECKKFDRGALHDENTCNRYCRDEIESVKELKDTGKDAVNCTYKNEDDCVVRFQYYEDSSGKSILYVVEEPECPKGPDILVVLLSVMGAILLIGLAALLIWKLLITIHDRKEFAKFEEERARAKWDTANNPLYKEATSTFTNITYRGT

T1 sequence (P06756 31-889 limits assumed): as the sequence (P06756 31-889 limits assumed) above
T1 sequence (P06756 891-1048 partner limits assumed): as the sequence (P06756 891-1048 partner limits assumed) above
T1 sequence (P05106 27-788): as the sequence (P05106 27-788) above

output sequences identifying the exact ligand [1]: 16 out of 18
SMILES: O=C(O)CC(NC(=O)CNC(=O)CCCc1ccc2c(n1)NCCC2)C(=O)O (stereo not drawn) [Feuston 5]
affinity for αv/βIII compared to the RGD-tripeptide (αv/βIII receptor): ten-fold increased affinity
Kd (αv/βIII receptor; αv/βIII): 111 nM
